One test concerns DU145 cells. Put plainly: Cell proliferation assay (hemacytometer counting). It counts as cell-based, human. On the procedure: 10. […] (A) DU145 cells were seeded in 10% FBS DMEM medium and 24 hours later cells were changed to serum free medium. 48 hours later changed the medium to 0.5% FBS medium and treated with ethanol, HF, or EGF. Every 24 hours, the cells were counted by hemacytometer. […]. […] (B) DU145 cells were seeded and transfected with anti-sense oligonucleotide of Ras (IRIS 2503: 5′-[…]-3′), Raf (IIUS: 5132:5′-[…]-3′) and HIV (5′-[…]-3′) (Chen, G., Oh, S., Monia B. P., and Stacey, D. W., J. Biol. Chem., 271: 28259-28265, 1996, Monia, B. P., et al., Proc. Natl. Acad. Sci. USA, 93: 15481-15484, 1996.) by SuperFect (Qiagen). 24 hour after serum starvation, we changed the cells to medium containing 0.5% FBS, and treated the cells as described in A. Cells were counted by hemacytometer every 24 hours. The cell lysate were blotted with anti-H-Ras and Raf antibodies and β-actin was blotted for loading control.
199. DU145 cells were seeded at 2×10^4/ml on 35 mm plates and allowed to attach overnight. Cells were kept in serum-free DMEM medium for 24 hours, and then media were replaced with DMEM-0.5% FBS and treated as indicated. Cells were trypsinized and counted with a hemacytometer at different times after treatments. For the antisense oligonuleotide experiments, cells were incubated with a fixed ratio of oligonucleotide versus SuperFect (2.5 μl of SuperFect per 100 nM oligo) for 4 hours and then the oligo-containing medium was replaced with DMEM-0.5% FBS. Cells were trypsinized and counted by hemacytometer at indicated times.

Another test has as its system cyclin D1. Put plainly: Western blot of cyclin D1 and cell cycle related gene products in DU145 cells. It is filed as cell-based, human. As for the experimental part: 11. […] (A) DU145 cells were treated with HF (1 μM), or EGF (10 ng/ml), or ethanol vehicle for 12 hours after the serum starvation. Cells were lysed and blotted with anti-cyclin D1 antibody. (B) DU145 cells were serum starved for 24 hours and then co-transfected DN Ras or DN Raf together with […] Luc reporter with SuperFect (Qiagen). After 4 hours, the medium was changed to normal medium (10% serum) for 18 hours and then changed to serum starvation condition for another 24 hours and then treated with HF, EGF, or ethanol vehicle control. Cells were lysed for luciferase activity analysis.

Test [1] has as its system p44/42 MAP kinase (ERK1 and 2). In words: Immunoblot of phosphorylated p44/42 MAP kinase in DU145 cells. It counts as cell-based, human. On the procedure: 7. […] (A) DU145 cells were grown in 100 mm dishes and serum-starved for 24 hours. The cells were lysed on ice. Equal amounts of cell lysate were analyzed by 12% SDS-PAGE and subsequent immunoblotted with anti-phospho ERK1/2 and anti-ERK1/2 antibodies. (B) Different cell lines, at 70 to 80% confluence, were lysed and immunoblotted with anti-AR polyclonal antibody, NH27. (C) DU145 cells were pre-incubated with MEK1/2 inhibitor U0126, or U0124 before HF, EGF, and ethanol treatment. Cells were lysed and immunoblotted with anti-phospho ERK1/2 and anti-ERK1/2 antibodies. (D) CWR2 and (E) PC3-AR cells were grown in 100 mm dishes and serum-starved for 24 hours. The cells were treated with HF, EGF or ethanol vehicle for 15 mins and immunoblotted with anti-phospho-ERK1/2 and anti-ERK1/2 antibodies. […] MMTV-ARE-Luc reporter plasmid was cotransfected with or without pSG5AR into DU145 cells. After 18 hours, cells were treated with 1 nM DHT, 1 μM HF or both for another 18 hours, and then harvested. Cell lysates were collected and assayed for the luciferase activity.
(§1) 9. […] After 15 min treatment, cells were lysed and immunoblotted with anti-phospho ERK1/2 and antiERK1/2 antibodies. […] EGFR was immunoprecipitated from the cell lysates, and their phosphotyrosine level was determined by anti-phosphotyrosine antibody. All the results were visualized using enhanced chemiluminescence.
198. This assay uses a polyclonal antibody specific against the activated p44/42 MAP kinases (Cell Signaling Technology, Beverly, Mass.), which detects p44 and p42 MAP kinase (ERK1 and 2) only when catalytically activated by dual phosphorylation at Thr202 and Tyr204. DU145 cells were seeded at 1×10^5 cells per 100 mm plate and allowed to attach overnight and then the media were replaced with serum-free DMEM media for 24 hours. The cells were pre-treated with MAP kinase inhibitors, EGFR antibodies, or cycloheximide for 1 hour and followed by HF, EGF, or vehicle treatment. Cells were washed twice with PBS, harvested at indicated times, and lyzed with RIPA buffer for 30 min on ice. The protein concentrations were determined by Bradford assay, and equal amount of protein was resolved by SDS-PAGE. Gels were transferred, immunoblotted with p44/42 MAP kinase antibody (1/1000), and then incubated with secondary antibody. Proteins were visualized by the enhanced chemiluminescence system (NEN™ Life Science Products, Boston, Mass.). P44/42 MAP kinase (total ERK1/2) was blotted as a control.

Test [2] has as its system MAP kinase in LNCaP cells. Put plainly: Immunoblot of phospho-ERK1/2 in LNCaP cells. It counts as cell-based, human. The settings on record: LNCaP cells (data not shown).
The subject of test [3] is MAP kinase in PC-3 stably transfected with AR (PC3-AR2). Put plainly: Immunoblot of phospho-ERK1/2 in PC3-AR2 cells. It is filed as cell-based, human. The settings on record: 15 mins.
A further test addresses T1, EGFR (Homo sapiens, UniProt P00533).
T1 construct: endogenous in cells; host or cells: DU145
In words: EGFR immunoprecipitation and anti-phosphotyrosine immunoblot in DU145 cells. It counts as cell-based. The settings on record: 1 μM HF, 20 min. As for the experimental part: as §1

The mark [4] stands for this setting: HF at 1 μM, serum-starved DU145 cells.

Each structure is given as a SMILES string. Entries after “also recorded” stand apart in the source; their conditions may differ.

T1 sequence (P00533 25-1210): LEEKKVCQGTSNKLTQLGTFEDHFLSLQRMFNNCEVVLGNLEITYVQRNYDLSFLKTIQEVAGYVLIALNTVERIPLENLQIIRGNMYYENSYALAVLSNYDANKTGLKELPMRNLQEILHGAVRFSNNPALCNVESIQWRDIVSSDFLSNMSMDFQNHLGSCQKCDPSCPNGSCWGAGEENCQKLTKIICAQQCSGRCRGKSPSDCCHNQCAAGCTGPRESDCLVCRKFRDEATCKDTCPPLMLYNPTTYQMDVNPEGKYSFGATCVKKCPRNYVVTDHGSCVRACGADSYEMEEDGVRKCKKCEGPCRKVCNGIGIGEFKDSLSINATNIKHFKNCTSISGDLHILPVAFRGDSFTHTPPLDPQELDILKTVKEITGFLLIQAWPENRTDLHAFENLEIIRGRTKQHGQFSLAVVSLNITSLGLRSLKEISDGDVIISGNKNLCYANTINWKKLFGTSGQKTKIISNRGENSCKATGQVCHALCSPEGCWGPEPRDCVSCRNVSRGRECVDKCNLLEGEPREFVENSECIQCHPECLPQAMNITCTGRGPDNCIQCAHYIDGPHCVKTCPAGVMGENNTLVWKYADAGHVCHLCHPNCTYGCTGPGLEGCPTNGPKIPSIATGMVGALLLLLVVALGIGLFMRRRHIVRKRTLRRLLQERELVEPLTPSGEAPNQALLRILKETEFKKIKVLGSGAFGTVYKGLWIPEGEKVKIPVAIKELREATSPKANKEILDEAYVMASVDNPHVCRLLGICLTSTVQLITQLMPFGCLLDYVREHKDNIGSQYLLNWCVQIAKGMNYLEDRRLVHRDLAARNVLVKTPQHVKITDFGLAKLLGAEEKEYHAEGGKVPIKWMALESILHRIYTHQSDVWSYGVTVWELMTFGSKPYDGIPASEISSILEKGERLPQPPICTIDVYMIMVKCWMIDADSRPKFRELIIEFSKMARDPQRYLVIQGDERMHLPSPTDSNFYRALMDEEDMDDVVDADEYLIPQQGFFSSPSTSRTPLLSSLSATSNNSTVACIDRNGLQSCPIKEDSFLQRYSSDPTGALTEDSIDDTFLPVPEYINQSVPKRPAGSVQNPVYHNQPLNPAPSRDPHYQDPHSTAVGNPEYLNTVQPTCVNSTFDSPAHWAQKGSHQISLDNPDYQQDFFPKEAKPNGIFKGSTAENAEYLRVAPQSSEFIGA

Consider `CC(C)(O)C(=O)Nc1ccc([N+](=O)[O-])c(C(F)(F)F)c1` [HF, hydroxyflutamide], for which the cell proliferation result with DU145 cells (cells maintained in 10% FBS medium (data not shown)) is given as “no significant stimulation of cell proliferation”; in the test on DU145 cells (low serum (0.5% FBS) after serum starvation), “stimulate the DU 145 cell growth significant; also recorded: can promote cell proliferation”. Moreover, in the test with cyclin D1 (HF (1 μM) or EGF (10 ng/ml) for 12 hours after serum starvation), the “cyclin D1 expression” value is “induced”. The “other cell cycle related gene products (p27, p21, Ki67, PCNA)” value with cyclin D1 (after HF- or EGF-treatment) is reported as “no significant change”. Also, the “activation of MAP kinase as compared to EGF activation” value in test [1] is on record as “relatively weak”. The “total MAP kinase (ERK1/2) protein expression” value in test [1] (DU145 cells) is listed as “no influence”. Further, the “time to activate MAP kinase” value in test [1] (setting [4]) was no more than 15 min. For the same compound, the “time to reach maximum MAP kinase activation” value in test [1] (setting [4]) stood at 30 min. Moreover, the MAP kinase activation result in test [2] is “not”; in test [3], “activates MAP kinase”. Further, the “autophosphorylation of EGFR” value at EGFR is reported as “causes the autophosphorylation of EGFR”.

(Values after US20060270643A1, “Hyfroxyflutamide induced pathways related to androgen receptor negative prostate cancer cells” (priority 2002, published 2006).)
